# Laboratory results reported in patent US7771931B2, “Methods for diagnosing and treating diseases and conditions associated with protein kinase Cλ” (The General Hospital Corporation, priority 2001, dated 2010).
# Tests used:
# zebrafish embryos [1] = experiment: Small molecule treatment of developing zebrafish embryos, visual inspection of heart patterning
# From the text: Visual inspection of the transparent embryos was used to identify small molecules that affect the global patterning of the heart.
# mammalian cells = experiment: Bromodeoxyuridine incorporation in mammalian cells; format: cell-based
# zebrafish embryos [2] = experiment: Fusion order of heart primordia (cmlc2 expression, 16- and 18-somite stages); format: in vivo
# Description: (§1) Digoxigenin-labeled antisense RNA probes were generated by ill vitro transcription for cmlc2 (Yelon et al., supra), vmhc (Yelon et al., supra), and pax2.1 (Krauss et al., Development 113:1193-1206, 1991). In situ hybridization was carried out as described (Oxtoby et al., Nucleic Acids Res. 21:1087-1095, 1993). For whole-mount immunohistochemistry, embryos were fixed in 4% paraformaldehyde in phosphate-buffered saline (S46 and 3G8) or 80% methanol, 20% dimethyl sulfoxide (α-ZO-1), permeablized in acetone for 30 minutes at −20° C. (3G8), blocked with 5% fetal bovine serum, and incubated with the antibodies S46, 3G8 (Vize et al., Dev. Biol. 171:531-540, 1995), or α-ZO-1. An anti-mouse-horseradish peroxidase conjugate was used as secondary antibody for S46 and 3G8, and an Alexa 488-labeled anti-mouse secondary antibody was used for α-ZO-1 staining.
# zebrafish embryos [3] = experiment: Kidney epithelium of treated zebrafish embryos (apical marker 3G8); format: in vivo; details: embryos exposed to concentramide
# Description: as §1
# (§2) Fixed embryos were dehydrated, embedded in plastic (JB4, Polysciences, Inc.), and sectioned at 2-7 μm. Retinal sections were stained with hematoxylin-eosin or dapi.
# C. elegans embryo = experiment: Early development of the C. elegans embryo (par-2::GFP strain KK871); format: in vivo; details: 34 μM concentramide
# Description: C. eleganis strain KK871 (par-2::GFP) was maintained at 25° C. For each sample, 10-15 adult worms were soaked in 80 μL M9 medium containing 34 μM concentramide, 0.25% dimethyl sulfoxide for 30-60 minutes. Worms were then cut open with a scalpel, and embryos were mounted on 2% agarose pads with coverslips. Embryos were allowed to develop at 25° C. before being photographed live.
# zebrafish embryos [4] = experiment: Retina histology of treated zebrafish embryos (hematoxylin-eosin, dapi); format: in vivo; details: concentramide-treated embryos
# From the text: as §2
# zebrafish embryos [5] = experiment: Anterior-posterior patterning by in situ hybridization (Pax2.1, cmlc2), 18-somite zebrafish embryos; format: in vivo
# Description: as §1
# yeast = experiment: Rate of proliferation of yeast; format: cell-based
# PKCλ = experiment: Antisense morpholino injection into zebrafish embryos; format: in vivo; details: injected into 1-4 cell embryos
# Description: An antisense morpholino oligonucleotide of sequence 5′-[…]-3′ (SEQ ID NO:6) (GeneTools, LLC) was dissolved at a concentration of […] in 1× Danieau's buffer (5 mM Hepes pH 7.6, 58 mM NaCl, 0.7 mM KCl, 0.6 mM Ca (NO3)2, 0.4 mM MgSO4). One nL of this solution or 1× Danieau's buffer was injected into each 1-4 cell embryo before allowing the embryos to develop at 28.50° C.
compound,measurement,setting,value
CCCCCc1ccc(-c2ccc(/C=C/C(N)=O)cc2)nc1 [concentramide],phenotype at 6 μM compared with 6 nM,zebrafish embryos [1]; 6 μM versus 6 nM,virtually the same phenotype
same,brain development,zebrafish embryos [1]; concentramide-treated embryos,develop abnormally
same,heart phenotype of exposed embryos,zebrafish embryos [1]; embryos exposed to concentramide,compact hearts that do not sustain a circulation
same,cell death,zebrafish embryos [1]; general cytotoxicity,no increase in cell death is apparent
same,development relative to untreated siblings,zebrafish embryos [1]; general cytotoxicity,not delayed
same,stage before which concentramide must be present to induce the concentric chamber morphology,"zebrafish embryos [1]; more precise staging, approximately 15 hpf",< 14 somite stage
same,potency on specific molecular target versus other proteins affecting visible developmental processes,zebrafish embryos [1]; same phenotype at 6 μM and 6 nM,"at least 1,000 times"
same,heart morphology at 24 hpf,zebrafish embryos [1]; treated after 17 hpf,wild-type heart morphology
same,heart morphology at 24 hpf,zebrafish embryos [1]; treated at any time prior to 14 hpf,concentric chamber morphology
same,brain and heart phenotype with timed treatment,"zebrafish embryos [1]; treated between 9 and 14 hpf, concentric heart chamber phenotype preserved",eliminates this brain defect
same,effect on bromodeoxyuridine incorporation,mammalian cells,no effect
same,fusion of posterior ends of the heart field,zebrafish embryos [2],failure to merge the posterior ends
same,irregular epithelial cell shapes and gaps between cells in the kidney,zebrafish embryos [3],did not observe these defects
same,Par2 localization,C. elegans embryo,retain proper localization of Par2 to the posterior pole
same,asymmetry of first cell division,C. elegans embryo,normally asymmetric first cell division
same,completion of development,C. elegans embryo,fail to complete development
same,cytokinesis,C. elegans embryo,cytolinetic defects
same,"defects in cell polarity, RPE continuity, or lamination of the retina",zebrafish embryos [4],do not exhibit defects
same,distance between Pax2.1-expressing cells in the eyes and at the midbrain/hindbrain boundary,zebrafish embryos [5]; 18-somite embryos,reduced
same,distance between the anterior edge of the cmlc2-expressing field and the anterior extreme of the embryo,"zebrafish embryos [5]; 18-somite stage, n=12, wild-type 3.1+/−0.2",2.2+/−0.3 arbitrary units
same,effect on rate of proliferation of yeast,yeast,no effect
5′-CTGTCCCGCAGCGTGGGCATTATGG-3′ (all phosphorodiamidate morpholino (PMO)) [antisense morpholino oligomers],phenotype of injected embryos compared with has mutation,PKCλ,phenocopy the mutation entirely
